Paper PMC7594877, “Multidirectional in vitro and in cellulo studies as a tool for identification of multi-target-directed ligands aiming at symptoms and causes of Alzheimer’s disease” (Journal of Enzyme Inhibition and Medicinal Chemistry, 2020)
Where “and” joins values, the source holds several entries; their conditions need not be identical. Identical values can stand only once.

Columns and labels:
[1] = target: T1, human BACE1 (Homo sapiens, UniProt P56817); test: In vitro inhibition of human BACE1, FRET assay; format: biochemical; conditions: for hBACE1 % inhibition: at 10 µM per table footnote b, mean of three experiments ± SD; for BACE1 percentage of inhibition: screening concentration 50 µM; for IC50: mean of three experiments ± SEM, read-out: hBACE1 IC50
T1 construct: purchased Panvera, Madison, WI (BACE1 FRET Assay Kit); host or cells: baculovirus-expressed
Experimental: To further explore the multifunctional profile of the ligands, we screened them for their inhibitory activity against human BACE1 using spectrofluorometric assay (fluorescence resonance energy transfer (FRET)-based). […] Therefore, BACE1 inhibitors are now being tested in earlier stages of AD and in asymptomatic subjects at risk of AD, with the hope of blocking the disease process before it becomes irreversible.
BACE1 FRET Assay Kit (Panvera, Madison, WI) was performed according to the manufacturer’s protocol with small modifications. The Kit includes purified baculovirus-expressed BACE1 and specific peptide substrate (Rh-[…]-quencher), based on the “Swedish” mutant of APP. The analysis was carried, using 384-well black microplates and a microplate reader (EnSpire Multimode; PerkinElmer, Waltham, MA). The wavelength was optimised for the 553 nm excitation and 576 nm emission. Stock solutions of all test compounds were prepared in DMSO and further diluted with assay buffer (50 mM sodium acetate; pH 4.5). In the first step, 10 μL of BACE1 substrate was mixed with 10 μL of test compound (or assay buffer; i.e. blank sample), then 10 μL of the enzyme (1 U/mL) was added to start the reaction. After 60 min of incubation at 25 °C, 10 μL of stop solution (2.5 M sodium acetate) was applied to stop the reaction. The fluorescence signal was read at 576 nm. Percent of inhibition was calculated from [1 − (S60 − S0)/(C60 − C0)] × 100, where S0 and S60 are fluorescence intensities of the test sample (enzyme, substrate, test compound) at the beginning of the reaction and after 60 min, respectively, while C0 and C60 are analogical fluorescence intensities of the blank sample (enzyme, substrate, buffer). […] Each compound was analysed in triplicate. Commercially available BACE1 Inhibitor IV (Calbiochem, Merck; Nottingham, UK) was used as the reference compound. The IC50 values were calculated using nonlinear regression (GraphPad Prism 5 [GraphPad Software, San Diego, CA, 5.00]) by plotting the residual enzyme activities against the applied inhibitor concentration.

[2] = target: T2, tau (Homo sapiens, UniProt P10636); test: In cellulo tau aggregation inhibition, Thioflavin S fluorescence in E. coli overexpressing tau; format: cell-based, Escherichia coli; conditions: at 10 µM; mean of three experiments ± SEM
T2 construct: expressed in transfected cells; host or cells: E. coli BL21 (DE3) with pTARA (T7 RNA polymerase under pBAD) and pRKT42
Description: (§1) We screened multifunctional ligands from our in-house library for their anti-aggregating activity against Aβ and tau in the whole bacterial cells using the Thioflavin S (ThS) fluorescence assay. Bacterial cells overexpressing different proteins provide simple models that can be easily employed to monitor the mechanisms of protein aggregation related to a variety of conformational diseases[36]^,[37]. In our assay, E. coli system has been implemented to study the effect of potential Aβ42 and tau aggregation inhibitors within intact cells. The advantage of the test over in vitro tests is the fact that it considers the complexity of the cellular environment that plays a crucial role in tuning protein aggregation. This assay has been validated and successfully applied to assess the anti-aggregating properties of diverse chemical structures. Previously investigated tetrahydrobenzo[h][1,6] naphthyridine-6-chlorotacrine hybrid DP-128 was used as a reference compound[38]^,[39].
(§2) The assays were conducted according to the procedure described previously. All general chemicals were purchased from Sigma-Aldrich (St. Louis, MO) . Reagents for bacterial media were purchased from Conda (Sevilla, Spain). M9 minimal medium for 100 mL: 10 mL of salts 10× (0.68 g of Na2HPO4, 0.30 g of KH2PO4, 0.05 g of NaCl, 0.10 g of NH4Cl), 0.2 mL of 1 M MgSO4, 0.2 mL of 50 mM CaCl2, 2.5 mL of 20% glucose, and 87.1 mL of H2O.
(§3) E. coli competent cells BL21 (DE3) were transformed with the pET28a vector (Novagen, Inc., Madison, WI) carrying the DNA sequence of Aβ42 or with pTARA containing the RNA polymerase gene of T7 phage (T7RP) under the control of the promoter pBAD, then with pRKT42 vector encoding four repeats of tau protein in two inserts. For overnight culture preparation, 10 ml of M9 minimal medium containing 50 μg/mL of kanamycin (Aβ42) or 50 μg/mL of ampicillin and 12.5 μg/mL of chloramphenicol (tau) were inoculated with a colony of BL21 (DE3) bearing the plasmid Aβ42 or tau plasmids to be expressed at 37 °C and 180 rpm using an incubator shaker (Ovan, Barcelona, Spain). After overnight growth, the OD600 was usually 2 − 2.5. For expression of Aβ42 peptide/tau protein, 200 μL of overnight culture were transferred into Eppendorf tubes of 1.5 mL containing 790 μL of fresh M9 minimal medium with 50 μg/mL of kanamycin1 mM of isopropyl 1-thio-β-D-galactopyranoside (IPTG) (Aβ42) or 50 μg/mL of ampicillin, 12.5 μg/mL of chloramphenicol, 0.25% of arabinose (tau), and 25 μM of ThS and 10 μL of reference, tested compounds (1 mM in DMSO, final concentration: 10 μM) or DMSO. The samples were grown for 24 h at 37 °C and 180 rpm using an incubator shaker (Ovan). The samples with DMSO were prepared as a negative control (maximum level of Aβ42/tau, 0% of inhibition). In the positive controls, the M9 medium without IPTG (minimal level of Aβ42) or arabinose (minimal level of tau) was used. For absorbance and fluorescence determination, 200 μL of each Eppendorf tube was transferred in triplicate into 96-well plate. Finally, the fluorescence emission at 520 nm, when exciting at 440 nm and absorbance at 600 nm was recorded using the multi-mode microplate reader (Beckman Counter, Brea, CA). The absorbance at 600 nm (OD600) of these samples was assessed to check the bacterial growth and potential intrinsic toxicity of the tested compounds. Final data are the average of three independent experiments. DP-128 was used as a reference compound[38].

[3] = target: T3, Aβ42 (Homo sapiens, UniProt P05067); test: In cellulo Aβ42 aggregation inhibition, Thioflavin S fluorescence in E. coli overexpressing Aβ42; format: cell-based, Escherichia coli; conditions: at 10 µM; mean of three experiments ± SEM
T3 construct: expressed in transfected cells; host or cells: E. coli BL21 (DE3) with pET28a-Aβ42, IPTG-induced
Description: as §1, §2, §3

[4] = test system: eqBuChE; conditions: read-out: eqBuChE IC50; cited from earlier work
[5] = test system: hAChE; conditions: read-out: hAChE IC50; cited from earlier work

T3 sequence (P05067 672-713): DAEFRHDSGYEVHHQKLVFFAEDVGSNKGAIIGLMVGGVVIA
T2 sequence (P10636 other isoform, or with tags, fused parts or gaps): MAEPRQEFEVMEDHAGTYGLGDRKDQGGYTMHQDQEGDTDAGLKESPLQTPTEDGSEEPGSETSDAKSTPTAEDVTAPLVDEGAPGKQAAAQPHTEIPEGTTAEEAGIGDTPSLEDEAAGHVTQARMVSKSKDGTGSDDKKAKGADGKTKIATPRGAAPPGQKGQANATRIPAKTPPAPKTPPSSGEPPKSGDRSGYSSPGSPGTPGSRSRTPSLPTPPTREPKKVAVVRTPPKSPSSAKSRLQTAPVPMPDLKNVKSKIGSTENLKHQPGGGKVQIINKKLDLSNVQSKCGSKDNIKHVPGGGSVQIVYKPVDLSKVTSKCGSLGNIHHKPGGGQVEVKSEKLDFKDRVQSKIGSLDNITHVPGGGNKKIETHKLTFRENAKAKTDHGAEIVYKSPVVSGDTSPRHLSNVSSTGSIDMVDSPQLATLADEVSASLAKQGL
T1 sequence (P56817 46-501): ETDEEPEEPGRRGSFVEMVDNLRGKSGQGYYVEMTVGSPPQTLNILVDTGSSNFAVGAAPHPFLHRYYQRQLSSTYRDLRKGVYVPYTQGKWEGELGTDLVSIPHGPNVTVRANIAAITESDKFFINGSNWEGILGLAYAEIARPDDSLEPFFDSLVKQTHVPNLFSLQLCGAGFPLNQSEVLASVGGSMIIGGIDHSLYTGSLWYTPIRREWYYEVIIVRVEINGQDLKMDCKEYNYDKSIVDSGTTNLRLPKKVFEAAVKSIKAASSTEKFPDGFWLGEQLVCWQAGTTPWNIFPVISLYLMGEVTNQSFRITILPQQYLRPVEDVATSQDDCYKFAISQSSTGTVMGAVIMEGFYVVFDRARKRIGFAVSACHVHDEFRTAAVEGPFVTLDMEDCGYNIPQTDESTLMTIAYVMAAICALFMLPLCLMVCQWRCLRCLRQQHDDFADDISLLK

Row | SMILES | hBACE1 % inhibition [1] | BACE1 percentage of inhibition [1] | In cellulo tau inhibition % [2] | In cellulo Aβ42 inhibition % [3] | IC50 [1] | IC50 [4] [µM] | IC50 [5] [µM]
1 | Cc1c(OCc2ccccc2)cccc1N1CCN(CCCCCNCc2ccccc2)CC1 [Compound 33] | 31.5% ± 1.1 | about 30% | 55.8 ± 5.3% | 29.0 ± 4.5% |  |  | 
2 | O=S(=O)(c1ccccc1)n1ccc2c(N3CCN(CCCCCCCCNc4c5c(nc6ccccc46)CCCC5)CC3)cccc21 [Compound 5] |  |  | 52.7 ± 5.7% | 61.8 ± 4.1% | 2.29 ± 0.13 µM |  | 
3 | O=S(=O)(c1ccccc1)n1ccc2c(N3CCN(CCCCCNc4c5c(nc6ccccc46)CCCC5)CC3)cccc21 [Compound 2] |  |  |  |  | 8.07 ± 0.15 µM |  | 
4 | Cc1c(OCc2ccccc2)cccc1N1CCN(CCCCCCCCNc2c3c(nc4ccccc24)CCCC3)CC1 [Compound 30] | 33.6% ± 11.1 | 34% | 60.2 ± 2.6% | 66.7 ± 5.1% |  |  | 
5 | Cc1c(OCc2ccccc2)cccc1N1CCN(CCCNc2c3c(nc4ccccc24)CCCC3)CC1 [Compound 27] |  |  | 64.5 ± 4.1% | 64.9 ± 4.5% | 5.76 ± 0.28 µM |  | 
6 | c1ccc(Cn2ccc3c(N4CCN(CCNc5c6c(nc7ccccc57)CCCC6)CC4)cccc32)cc1 [Compound 17] |  |  | 59% and 58.6 ± 4.5% | 56% and 55.7 ± 2.8% | 4 µM and 4.09 µM | 0.005 | 0.026
7 | c1ccc(Cn2ccc3c(N4CCN(CCCCCCNc5c6c(nc7ccccc57)CCCC6)CC4)cccc32)cc1 [Compound 20] | 62.1% ± 5.8 | 62% | 64.0 ± 5.1% | 66.9 ± 3.9% |  |  | 
8 | O=S(=O)(c1ccccc1)n1ccc2c(N3CCN(CCCCNCc4ccccc4)CC3)cccc21 [Compound 8] |  |  | 45.1 ± 5.1% | 54.5 ± 3.8% | 19.7 ± 1.54 µM |  | 
9 | O=S(=O)(c1ccccc1)n1ccc2c(N3CCN(CCCNCc4ccccc4)CC3)cccc21 [Compound 7] |  |  | 39.7 ± 3.8% | 48.3 ± 4.2% | 5.82 ± 0.34 µM |  | 
10 | c1ccc(CNCCCCCCCN2CCN(c3cccc4c3ccn4Cc3ccccc3)CC2)cc1 [Compound 24] |  |  | 55.6 ± 4.2% | 21.4 ± 3.4% | 21.7 ± 1.57 µM |  | 
11 | c1ccc(CNCCCCN2CCN(c3cccc4c3ccn4Cc3ccccc3)CC2)cc1 [Compound 21] |  |  | 41.3 ± 6.3% | 12.2 ± 4.1% | 21.9 ± 1.16 µM |  | 
12 | c1ccc(CNCCCCCCN2CCN(c3cccc4c3ccn4Cc3ccccc3)CC2)cc1 [Compound 23] |  |  | 28.4 ± 3.8% | 16.4 ± 2.8% | 30.9 ± 1.58 µM |  | 
13 | c1ccc(Cn2ccc3c(N4CCN(CCCCCNc5c6c(nc7ccccc57)CCCC6)CC4)cccc32)cc1 [Compound 19] |  |  |  |  | 7.23 ± 0.38 µM |  | 
14 | O=S(=O)(c1ccccc1)n1ccc2c(N3CCN(CCNCc4ccccc4)CC3)cccc21 [Compound 6] | 67.4% ± 4.8 |  | 54.6 ± 6.2% | 64.8 ± 3.4% |  |  | 
15 | Cc1c(OCc2ccccc2)cccc1N1CCN(CCCCCCNc2c3c(nc4ccccc24)CCCC3)CC1 [Compound 28] | 67.4% ± 11.3 | 67% | 64.8 ± 2.2% | 64.2 ± 3.4% |  |  | 
16 | O=S(=O)(c1ccccc1)n1ccc2c(N3CCN(CCNc4c5c(nc6ccccc46)CCCC5)CC3)cccc21 [Compound 1] |  |  | 58.1 ± 4.8% | 40.7 ± 4.3% | 1.58 ± 0.15 µM |  | 
17 | c1ccc(CNCCCCCN2CCN(c3cccc4c3ccn4Cc3ccccc3)CC2)cc1 [Compound 22] | 63.9% ± 7.7 |  | 44.3 ± 6.5% | 25.2 ± 3.4% |  |  | 
18 | O=S(=O)(c1ccccc1)n1ccc2c(N3CCN(CCCCCCCNc4c5c(nc6ccccc46)CCCC5)CC3)cccc21 [Compound 4] |  |  | 46.4 ± 5.9% | 58.8 ± 4.2% | 1.31 ± 0.06 µM |  | 
19 | c1ccc(Cn2ccc3c(N4CCN(CCCNc5c6c(nc7ccccc57)CCCC6)CC4)cccc32)cc1 [Compound 18] |  |  |  |  | 4.58 ± 0.21 µM |  | 
20 | Cc1c(OCc2ccccc2)cccc1N1CCN(CCCNCc2ccccc2)CC1 [Compound 31] | 34.0% ± 11.4 |  | 39.5 ± 8.3% | 24.4 ± 3.4% |  |  | 
21 | Cc1c(OCc2ccccc2)cccc1N1CCN(CCCCNCc2ccccc2)CC1 [Compound 32] | 42.8% ± 12.7 | 42.8% | 42.5 ± 6.3% | 43.2 ± 5.4% |  |  | 
22 | Cc1c(OCc2ccccc2)cccc1N1CCN(CCCCCCCNc2c3c(nc4ccccc24)CCCC3)CC1 [Compound 29] |  |  | 70.3 ± 3.9% | 67.4 ± 4.1% | 4.07 ± 0.27 µM |  | 
23 | O=S(=O)(c1ccccc1)n1ccc2c(N3CCN(CCCCCNCc4ccccc4)CC3)cccc21 [Compound 9] |  |  | 44.8 ± 5.6% | 48.0 ± 4.0% | 23.4 ± 1.6 µM |  | 
